# Experimental data from patent publication US20150136150A1, “DURABLE SKIN MARKING COMPOSITIONS” (OP-MARKS, INC., priority 2011, published 2015).
# Values joined by “and” are separate entries in the source; they are usually repeats but may differ in a detail not shown here. Equal entries are not always repeated. Where two headings read alike, the source gives them in different places.
# How the values were obtained:
# [1] = relative volatility compared to butyl acetate; cited from earlier work
# [2] = cited from earlier work
# [3] = Solvent compatibility with viscosity-increasing polymer, viscosity of solution: MMA; type: physicochemical; set-up: unit not given here; settings: polymer added at 5% by weight, up to 3 days agitation
# [4] = Solvent compatibility with viscosity-increasing polymer, viscosity of solution: CAB; type: physicochemical; set-up: unit not given here; settings: polymer added at 5% by weight, up to 3 days agitation
# [5] = Solvent miscibility and compatibility with octyl cyanoacrylate; type: physicochemical; set-up: key: V = slightly viscous; VV = viscous; VVV = very viscous; Lyr = layers; Pl = pale; Lt = light; Y = yellow; RX = reacts; Gry = grey; Brn = brown; Blk = black; settings: 3 ml solvent + 3 ml OCA
# Method: (§1) Next, the solvents were tested for miscibility and compatibility with cyanoacrylate esters. Briefly, beginning with 3 ml samples each of butyl cyanoacrylate (BCA), octyl cyanoacrylate (OCA) and ethoxyethyl cyanoacrylate (EECA), 3 ml of each solvent was added drop-wise to each cyanoacrylate sample and agitated to aid mixing. Observations of the samples were taken immediately and then at regular intervals over 7 days. […] The remaining 10 solvents were ranked according to their compatibility with the cyanoacrylate esters based primarily on their compatibility with BCA over 7 days, secondarily on their compatibility with OCA, and finally on their miscibility with EECA.
# [6] = tested on: rat; settings: cited from earlier work
# [7] = Solvent miscibility and compatibility with ethoxyethyl cyanoacrylate; type: physicochemical; settings: 3 ml solvent + 3 ml EECA
# Method: as §1
# [8] = Solvent miscibility and compatibility with cyanoacrylate esters (overall); type: physicochemical; settings: observations over 7 days
# Method: as §1
# [9] = Solvent miscibility and compatibility with butyl cyanoacrylate; type: physicochemical; set-up: key: V = slightly viscous; VV = viscous; VVV = very viscous; Lyr = layers; Pl = pale; Lt = light; Y = yellow; RX = reacts; Gry = grey; Brn = brown; Blk = black; settings: 3 ml solvent + 3 ml BCA
# Method: as §1
# [10] = Solvent compatibility with viscosity-increasing polymer, viscosity of solution: VEE; type: physicochemical; set-up: unit not given here; settings: polymer added at 5% by weight, up to 3 days agitation
# [11] = Colorant solubility in solvent; settings: for PPM dye soluble: 10 g solvent added to 0.4 g D&C Violet #2, shaken 30 minutes, stood 30 minutes; for Dye solubility, suitability: D&C Violet #2
# Method: For the remaining solvents, colorant solubility was assessed in terms of the solubility of D&C Violet #2. Briefly, 10 g of each of the solvents listed in Table 5 was added to 0.4 g of dye in 12 ml test tubes. The samples were shaken for 30 minutes then allowed to stand for 30 minutes. After standing, 5 ml of the top layer was removed and weighed into pre-weighed aluminum weigh boats where the solvent was allowed to evaporate before re-weighing.
# [12] = Solvent compatibility with viscosity-increasing polymer, viscosity of solution: IB; type: physicochemical; settings: for Dissolution of polyisobutylene: 5% by weight, up to 3 days; for Viscosity of solution with IB: polymer added at 5% by weight, up to 3 days agitation
# [13] = Solvent compatibility with viscosity-increasing polymer, viscosity of solution: Cap; type: physicochemical; settings: polymer added at 5% by weight, up to 3 days agitation
compound,measurement,setting,value
"C1COCCO1 [1,4 Dioxane]",VL (volatility),[1],2.7
same,VP (vapor pressure),[2]; at 20 ° C.,27@20 mmHg
same,Viscosity of solution with MMA,[3],17
same,Viscosity of solution with CAB,[4],6.9
same,"OCA compatibility, 7 Day",[5],VVV
CCCCC(CC)CO (stereo not drawn) [2-ethyl hexanol],"TOX (toxicity, LD50)","[6]; rat, in vivo, po",3730 mg/kg
same,VL (volatility),[1],0.01
same,VP (vapor pressure),[2]; at 20 ° C.,0.36@20^ mmHg
COCCOCCOC [2-methoxy ethyl ether],VP (vapor pressure),[2]; at 25 ° C.,3@25 mmHg
CC(=O)C(C)C [3-Methyl 2-butanone],"EECA compatibility, 1 Day",[7],LtBrn
same,"EECA compatibility, 2 Day",[7],LtGry
same,"EECA compatibility, 7 Day",[7],LtGry
same,"TOX (toxicity, LD50)",[6]; oral dose administered to rat,3078 mg/kg
same,VL (volatility),[1],2.9
same,VP (vapor pressure),[2]; at 20 ° C.,42@20 mmHg
same,"OCA compatibility, 1 Day",[5],VV
same,"OCA compatibility, 2 Day",[5],VV
same,"OCA compatibility, 7 Day",[5],VV
same,Reaction with the cyanoacrylate esters,[8],apparent reactions
same,"BCA compatibility, 1 Day",[9],Gry
same,"BCA compatibility, 2 Day",[9],Blk
same,"BCA compatibility, 7 Day",[9],Blk
CC(C)=O [Acetone],VL (volatility),[1],7.7
same,VP (vapor pressure),[2]; at 39.5 ° C.,400@39.5 mmHg
same,Viscosity of solution with MMA,[3],2.4
same,Viscosity of solution with CAB,[4],1.8
same,Reaction with the cyanoacrylate esters,[8],apparent reactions
same,"BCA compatibility, 2 Day",[9],V
same,"BCA compatibility, 7 Day",[9],VV
CCC(C)=O [Butanone],"TOX (toxicity, LD50)",[6]; oral dose administered to rat,2737 mg/kg
same,VL (volatility),[1],2.7
same,VP (vapor pressure),[2]; at 60 ° C.,400@60 mmHg
same,Viscosity of solution with MMA,[3],4.5 and 4.2
same,Viscosity of solution with CAB,[4],1.8
same,"OCA compatibility, 1 Day",[5],V
same,"OCA compatibility, 2 Day",[5],VV
same,"OCA compatibility, 7 Day",[5],VV
CCCCOCCO [Butoxyethanol],VP (vapor pressure),[2]; at 20 ° C.,0.8@20 mmHg
CCCCOC(C)=O [Butyl acetate],"TOX (toxicity, LD50)","[6]; rat, in vivo, po",10768 mg/kg
same,VL (volatility),[1],1
C1CCCCC1 [Cyclohexane],"EECA compatibility, 1 Day",[7],2Lyr
same,"EECA compatibility, 2 Day",[7],2Lyr
same,"EECA compatibility, 7 Day",[7],2Lyr
same,"EECA compatibility, Time 0",[7],2Lyr
same,"TOX (toxicity, LD50)","[6]; rat, in vivo, po",12705 mg/kg
same,VL (volatility),[1],2.6
same,Viscosity of solution with VEE,[10],4.5
same,VP (vapor pressure),[2]; at 20 ° C.,95@20 mmHg
same,PPM dye soluble,[11],600 PPM
same,"Dye solubility, suitability",[11],insufficient dye solubility
same,Dissolution of polyisobutylene,[12],partially dissolve
same,Viscosity of solution with IB,[12],59
same,"OCA compatibility, 1 Day",[5],V
same,"OCA compatibility, 2 Day",[5],VV
same,"OCA compatibility, 7 Day",[5],VV
O=C1CCCCC1 [Cyclohexanone],"TOX (toxicity, LD50)","[6]; rat, in vivo, po",1000 mg/kg
same,VL (volatility),[1],0.29
same,VP (vapor pressure),[2]; at 25 ° C.,5@25 mmHg
CC(=O)CC(C)(C)O [Diacetone alcohol],"TOX (toxicity, LD50)",[6]; oral dose administered to rat,4000 mg/kg
same,VL (volatility),[1],0.14
same,VP (vapor pressure),[2]; at 20 ° C.,0.95@20^ mmHg
CC(Cl)CCl (stereo not drawn) [Dichloropropane],"TOX (toxicity, LD50)",[6]; oral dose administered to rat,1947 mg/kg
same,VL (volatility),[1],−1
same,VP (vapor pressure),[2]; at 20 ° C.,40@20 mmHg
CCOCC [Diethyl ether],VL (volatility),[1],37.5
same,Viscosity of solution with VEE,[10],1.2
same,VP (vapor pressure),[2]; at 20 ° C.,440@20 mmHg
OCCOCCO [Diethylene glycol],VP (vapor pressure),[2]; at 92 ° C.,1@92 mmHg
CC(C)CC(=O)CC(C)C [Diisobutyl ketone],"TOX (toxicity, LD50)","[6]; rat, in vivo, po",5750 mg/kg
CC(C)C(=O)C(C)C [Diisopropyl ketone],"TOX (toxicity, LD50)","[6]; rat, in vivo, po",3536 mg/kg
same,VL (volatility),[1],0.17
same,VP (vapor pressure),[2]; at 37 ° C.,13.3@37^ mmHg
CCOCCOC(C)=O [Ethoxyethyl acetate],"TOX (toxicity, LD50)","[6]; rat, in vivo, po",2700 mg/kg
same,VL (volatility),[1],−1
same,VP (vapor pressure),[2]; at 20 ° C.,2@20 mmHg
CCOC(C)=O [Ethyl acetate],"TOX (toxicity, LD50)",[6]; oral dose administered to rat,5620 mg/kg
same,VL (volatility),[1],6
same,Viscosity of solution with MMA,[3],4.7
same,PPM dye soluble,[11],3400 PPM
same,Viscosity of solution with CAB,[4],2.3
same,"OCA compatibility, 2 Day",[5],V?
same,"OCA compatibility, 7 Day",[5],VV
CCCCCCC [Heptane],"EECA compatibility, 1 Day",[7],2Lyr
same,"EECA compatibility, 2 Day",[7],2Lyr
same,"EECA compatibility, 7 Day",[7],2Lyr
same,"EECA compatibility, Time 0",[7],2Lyr
same,"TOX (toxicity, LD50)","[6]; rat, in vivo, po",3200 mg/kg
same,VL (volatility),[1],4.3
same,Viscosity of solution with VEE,[10],1.5
same,VP (vapor pressure),[2]; at 20 ° C.,40@20 mmHg
same,Dissolution of polyisobutylene,[12],partially dissolve
same,Viscosity of solution with IB,[12],11
same,"OCA compatibility, 2 Day",[5],VV
same,"OCA compatibility, 7 Day",[5],VV
same,"BCA compatibility, 1 Day",[9],PlY
same,"BCA compatibility, 2 Day",[9],LtY
same,"BCA compatibility, 7 Day",[9],LtY
CCCCCC [Hexane],"EECA compatibility, 1 Day",[7],2Lyr
same,"EECA compatibility, 2 Day",[7],2Lyr
same,"EECA compatibility, 7 Day",[7],2Lyr
same,"EECA compatibility, Time 0",[7],2Lyr
same,"TOX (toxicity, LD50)","[6]; rat, in vivo, po",28710 mg/kg
same,Viscosity of solution with VEE,[10],0.9
same,VP (vapor pressure),[2]; at 20 ° C.,132@20 mmHg
same,PPM dye soluble,[11],500 PPM
same,"Dye solubility, suitability",[11],insufficient dye solubility
same,Viscosity of solution with IB,[12],7.7
C=CC(=C)C [Isoprene],"TOX (toxicity, LD50)","[6]; rat, in vivo, po",2100 mg/kg
same,VL (volatility),[1],28.6
same,VP (vapor pressure),[2]; at 20 ° C.,560@20 mmHg
same,Reaction with the cyanoacrylate esters,[8],apparent reactions
same,"BCA compatibility, Time 0",[9]; time 0,RX
COCCO [Methoxy ethanol],"TOX (toxicity, LD50)",[6]; oral dose administered to rat,2370 mg/kg
same,VL (volatility),[1],−1
same,VP (vapor pressure),[2]; at 20 ° C.,6.2@20 mmHg
COCC(C)O (stereo not drawn) [Methoxy propanol],"TOX (toxicity, LD50)",[6]; oral dose administered to rat,8532 mg/kg
same,VL (volatility),[1],0.3
CC1CCCCC1 [Methyl cyclohexane],"TOX (toxicity, LD50)",[6]; oral dose administered to rat,2250 mg/kg
same,VL (volatility),[1],2.99
same,VP (vapor pressure),[2]; at 20 ° C.,37@20 mmHg
CC(=O)CC(C)C [Methyl isobutyl ketone],"TOX (toxicity, LD50)",[6]; oral dose administered to rat,1600 mg/kg
same,VL (volatility),[1],1.6
same,VP (vapor pressure),[2]; at 20 ° C.,16@20 mmHg
C[N+](=O)[O-] [Nitromethane],VL (volatility),[1],1.39
same,VP (vapor pressure),[2]; at 20 ° C.,28@20 mmHg
CCCOCC(C)O (stereo not drawn) [PGPE (Arcosolv)],VL (volatility),[1],0.21
same,VP (vapor pressure),[2]; at 20 ° C.,1.7@20 mmHg
CCCOC(C)=O [Propyl acetate],"TOX (toxicity, LD50)","[6]; rat, in vivo, po",6640 mg/kg
same,VL (volatility),[1],3.0
same,VP (vapor pressure),[2]; at 20 ° C.,25@20 mmHg
"C1CCOC1 [THF, tetrahydrofuran]",VL (volatility),[1],8
same,VP (vapor pressure),[2]; at 20 ° C.,129@20 mmHg
same,Viscosity of solution with MMA,[3],5.3
same,Viscosity of solution with CAB,[4],3.1
same,"OCA compatibility, 1 Day",[5],VV
same,"OCA compatibility, 2 Day",[5],VV
same,"OCA compatibility, 7 Day",[5],VV
Cc1ccccc1 [Toluene],VL (volatility),[1],2.24
same,Viscosity of solution with VEE,[10],3.1
same,VP (vapor pressure),[2]; at 20 ° C.,22@20 mmHg
same,Viscosity of solution with Cap,[13],3.7
same,Viscosity of solution with IB,[12],20
CC(=O)OC(C)(C)C [t-Butyl acetate],"TOX (toxicity, LD50)",[6]; oral dose administered to rat,13400 mg/kg
same,VL (volatility),[1],1.5
CC(=O)OC(C)C [t-propyl acetate],"TOX (toxicity, LD50)",[6]; oral dose administered to rat,6750 mg/kg
same,VP (vapor pressure),[2]; at 25 ° C.,59@25 mmHg
same,PPM dye soluble,[11],2200 PPM
Methyl cyclohexanone,"TOX (toxicity, LD50)",[6]; oral dose administered to rat,2140 mg/kg
same,VL (volatility),[1],0.29
same,VP (vapor pressure),[2]; at 20 ° C.,3.3@20 mmHg
Xylene,"TOX (toxicity, LD50)",[6]; oral dose administered to rat,3910 mg/kg
same,VL (volatility),[1],0.7
same,VP (vapor pressure),[2]; at 20 ° C.,9@20 mmHg
